Data as given in patent publication US20250101063A1, “POLYPEPTIDE COMPOUND AND USE THEREOF IN TREATMENT OF ENTERITIS” (Sichuan Gooddoctor Panxi Pharmaceutical Co., Ltd., priority 2022, published 2025).
Entries after “also recorded” stand apart in the source; their conditions may differ. Where no end group is shown, it is not given here.

Columns and labels:
[1] = tested on: TNBS-induced model of acute inflammatory bowel disease (UC) in SD rat; assay: TNBS-induced model of acute inflammatory bowel disease (UC) in SD rat; format: in vivo; conditions: for Body weight, Grouping day (D 0, g): D 0, before treatment; for Body weight, Grouping day (D 0, g) / DAI score, Experimental day 1 (D 1, point) / DAI score, Experimental day 3 (D 3, point) / Body weight, Experimental day 5 (D 5, g): enema once a day; for Body weight, Grouping day (D 0, g) / DAI score AUC(0-14 d) (D 0-D 14) / Weight change range (D 0-D 14, %) / DAI score, Experimental day 1 (D 1, point) / DAI score, Experimental day 3 (D 3, point) / Body weight, Experimental day 5 (D 5, g) / Body weight, Experimental endpoint (D 14, g) / DAI score, Experimental endpoint (D 14, point) / Colon length (cm) / Colon ulcer and inflammation score (point) / Colon ulcer area (cm^2) / Colon weight / Colon weight/length ratio (100* g/cm) / Colonic adhesion score (point): mean ± SD; for DAI score AUC(0-14 d) (D 0-D 14) / Weight change range (D 0-D 14, %) / Body weight, Experimental endpoint (D 14, g) / DAI score, Experimental endpoint (D 14, point) / Colon length (cm) / Colon ulcer and inflammation score (point) / Colon ulcer area (cm^2) / Colon weight / Colon weight/length ratio (100* g/cm) / Colonic adhesion score (point) / Effect on disease progression of ulcerative colitis / DAI scores (in words) / Effect on weight gain inhibition / weight loss response of model animals (in words): enema once a day 14 days; for Colon length (cm) / Colon ulcer and inflammation score (point) / Colon ulcer area (cm^2) / Colon weight / Colon weight/length ratio (100* g/cm) / Colonic adhesion score (point) / Effect on colon atrophy process / colon weight/length ratio (in words) / Effect on gross colon injury status (colonic adhesion, ulcer and inflammation) and colon ulcer area (in words): experimental endpoint; for Overall therapeutic effect in the rat model of ulcerative colitis (in words) / Effect on disease progression of ulcerative colitis / DAI scores (in words) / Effect on weight gain inhibition / weight loss response of model animals (in words) / Effect on colon atrophy process / colon weight/length ratio (in words) / Effect on gross colon injury status (colonic adhesion, ulcer and inflammation) and colon ulcer area (in words): set treatment regimen; for Effect on disease progression of ulcerative colitis / DAI scores (in words) / Effect on weight gain inhibition / weight loss response of model animals (in words) / Effect on colon atrophy process / colon weight/length ratio (in words) / Effect on gross colon injury status (colonic adhesion, ulcer and inflammation) and colon ulcer area (in words): vs model control group
Description: In this experiment, a rat model of ulcerative colitis was established by administering trinitrobenzene sulfonic acid (TNBS) to laboratory animal male SD rats for a single enema intervention. Acute colitis in rats induced by trinitrobenzene sulfonic acid (TNBS) is an immune response induced by cytokines secreted by Th1 type cells. […] This model is simple to establish and has good reproducibility. It is an experimental animal model widely used in evaluating drugs for the treatment of inflammatory bowel disease. […] During the experimental treatment period (D1-D14), the body weight and general clinical observation indicators (including but not limited to food intake, water intake, activity level and defecation, etc.) of the animals in each experimental group were dynamically collected. At the same time, based on the relevant scoring standards for the disease activity index of ulcerative colitis, the reactivity such as the weight loss degree, stool morphology and trait, and bloody stool of the animals in each experimental group after TNBS induction were scored, and the disease activity index (DAI) of ulcerative colitis was calculated, once a day for 14 consecutive days. At the end point of the experiment, colon tissues of animals in each experimental group were collected, and the length and weight of the colon were measured and then the non-autopsy images were collected. Then the colon was cut open along the intestinal wall longitudinally and autopsy images were collected. Based on the “Criteria for Scoring Gross Morphological Manifestations of the Colon”, the gross damage with respect to colon adhesions, colon ulcers and inflammation of animals in each experimental group was observed and scored. Ulcer images were collected under a stereomicroscope and the area of colon ulcer foci was calculated, followed by routine fixation.

[2] = tested on: zebrafish model of intestinal mucosal injury; assay: Efficacy in relieving colitis: intestinal lumen area in TNBS-treated zebrafish; format: in vivo; conditions: for Intestinal lumen area (pixels, mean ± SE): 2 days after TNBS, n = 10; for Activity in relieving intestinal lumen dilatation: 1000 μg/mL, significance vs model control group of the same batch; for Intestinal lumen area compared with the model control group (in words): 250, 500, 1000 μg/mL, Table 4
How it was run: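 TNBS in water for 2 days at 28 °C in 3 dpf wild-type AB zebrafish, then test polypeptide in water for 2 days at 28 °C at 250, 500 or 1000 μg/mL; later rounds used 1000 μg/mL. Prednisone control at 15.0 μg/mL. Intestinal lumen area imaged in 10 fish/group, mean±SE.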

[3] = high dose group (compound 1: 6.0 mg/kg; compound 6: 2.8 mg/kg)
[4] = low dose group (compound 1: 3.0 mg/kg; compound 6: 1.4 mg/kg)

Substance	Body weight, Grouping day (D 0, g) [1, 3]	Body weight, Grouping day (D 0, g) [1, 4]	DAI score AUC(0-14 d) (D 0-D 14) [1, 3]	Weight change range (D 0-D 14, %) [1, 3]	DAI score AUC(0-14 d) (D 0-D 14) [1, 4]	Weight change range (D 0-D 14, %) [1, 4]	DAI score, Experimental day 1 (D 1, point) [1, 3]	DAI score, Experimental day 1 (D 1, point) [1, 4]	DAI score, Experimental day 3 (D 3, point) [1, 3]	DAI score, Experimental day 3 (D 3, point) [1, 4]	Body weight, Experimental day 5 (D 5, g) [1, 3]	Body weight, Experimental day 5 (D 5, g) [1, 4]	Body weight, Experimental endpoint (D 14, g) [1, 3]	DAI score, Experimental endpoint (D 14, point) [1, 3]	Body weight, Experimental endpoint (D 14, g) [1, 4]	DAI score, Experimental endpoint (D 14, point) [1, 4]	Colon length (cm) [1, 3]	Colon ulcer and inflammation score (point) [1, 3]	Colon ulcer area (cm^2) [1, 3]	Colon weight [1, 3]	other results
H-KEPVPQAKPRKVAAQ-OH [Compound 1]	279.99 ± 10.57 g	274.40 ± 9.10 g	30.65 ± 2.93^####+++	6.97 ± 4.73 %	37.65 ± 3.60	7.96 ± 7.32 %	3.9 ± 0.6 point	3.5 ± 1.3 point	4.3 ± 1.8 point	4.9 ± 1.6 point	263.90 ± 15.38 g	251.65 ± 18.30 g	299.37 ± 14.64 g	0.1 ± 0.3 point	296.07 ± 19.58 g	0.5 ± 0.7 point	16.55 ± 1.67 cm	1.40 ± 0.84^####++ point	2.15 ± 0.74^###+ cm^2	2.20 ± 0.28 g	Colon weight/length ratio (100* g/cm) [1, 3]: 13.37 ± 1.93^####+ 100* g/cm; Colonic adhesion score (point) [1, 3]: 0.60 ± 0.52 point; Colon length (cm) [1, 4]: 15.34 ± 1.99 cm; Colon ulcer and inflammation score (point) [1, 4]: 2.50 ± 0.85 point; Colon ulcer area (cm^2) [1, 4]: 3.77 ± 1.91^# cm^2; Colon weight [1, 4]: 2.48 ± 0.46 g; Colon weight/length ratio (100* g/cm) [1, 4]: 16.40 ± 3.29^### 100* g/cm; Colonic adhesion score (point) [1, 4]: 1.10 ± 0.57 point; Overall therapeutic effect in the rat model of ulcerative colitis (in words) [1]: significant therapeutic effects; Effect on disease progression of ulcerative colitis / DAI scores (in words) [1]: significant improvement effect on the disease progression of ulcerative colitis; Effect on weight gain inhibition / weight loss response of model animals (in words) [1]: significant effect of improving the weight gain inhibition; also recorded: significant improvement effect on the weight loss response; Effect on colon atrophy process / colon weight/length ratio (in words) [1]: colon weight/length ratio was significantly decreased; Effect on gross colon injury status (colonic adhesion, ulcer and inflammation) and colon ulcer area (in words) [1]: obvious therapeutic effects; also recorded: significant therapeutic effects on the gross damage manifestation of the colon; Intestinal lumen area (pixels, mean ± SE) ([2]; 250 μg/mL in water): 39333 ± 2095 pixels; Intestinal lumen area (pixels, mean ± SE) ([2]; 500 μg/mL in water): 26497 ± 1245 pixels; Intestinal lumen area (pixels, mean ± SE) ([2]; 1000 μg/mL in water): 26174 ± 1898 pixels; Activity in relieving intestinal lumen dilatation [2]: *** (*** p < 0.001); Intestinal lumen area compared with the model control group (in words) [2]: significant statistical differences compared with the model control group
EPVPQAK [Compound 6]	275.55 ± 7.92 g	276.61 ± 9.81 g	39.55 ± 3.99^####++++	1.50 ± 10.78%	49.65 ± 3.95	0.48 ± 9.87%	4.2 ± 0.8 point	3.9 ± 0.9 point	4.8 ± 1.0 point	5.0 ± 1.7 point	246.74 ± 22.76 g	243.72 ± 22.18 g	279.67 ± 30.93 g	0.7 ± 1.2 point	277.96 ± 29.18 g	1.3 ± 1.2 point	13.89 ± 1.60 cm	2.50 ± 1.43 point	3.66 ± 2.36^# cm^2	2.41 ± 0.63 g	Colon weight/length ratio (100* g/cm) [1, 3]: 17.70 ± 5.71# 100* g/cm; Colonic adhesion score (point) [1, 3]: 1.30 ± 0.82 point; Colon length (cm) [1, 4]: 13.37 ± 1.40 cm; Colon ulcer and inflammation score (point) [1, 4]: 3.00 ± 0.94 point; Colon ulcer area (cm^2) [1, 4]: 3.46 ± 2.06^## cm^2; Colon weight [1, 4]: 2.23 ± 0.39 g; Colon weight/length ratio (100* g/cm) [1, 4]: 16.93 ± 3.87^## 100* g/cm; Colonic adhesion score (point) [1, 4]: 1.70 ± 0.67 point; Overall therapeutic effect in the rat model of ulcerative colitis (in words) [1]: significant therapeutic effects; Effect on disease progression of ulcerative colitis / DAI scores (in words) [1]: significant improvement effect on the disease progression of ulcerative colitis; Effect on weight gain inhibition / weight loss response of model animals (in words) [1]: no obvious improved therapeutic effect; also recorded: did not show a significant weight improvement effect; Effect on colon atrophy process / colon weight/length ratio (in words) [1]: colon weight/length ratio was significantly decreased; Effect on gross colon injury status (colonic adhesion, ulcer and inflammation) and colon ulcer area (in words) [1]: obvious therapeutic effects; also recorded: significant therapeutic effects on the gross damage manifestation of the colon; Intestinal lumen area (pixels, mean ± SE) ([2]; 250 μg/mL in water): 53093 ± 3839 pixels; Intestinal lumen area (pixels, mean ± SE) ([2]; 500 μg/mL in water): 45831 ± 3894 pixels; Intestinal lumen area (pixels, mean ± SE) ([2]; 1000 μg/mL in water): 28429 ± 3711 pixels; Activity in relieving intestinal lumen dilatation [2]: ** (** p < 0.01); Intestinal lumen area compared with the model control group (in words) [2]: significant statistical differences compared with the model control group
